Earlier results, collected in patent publication US10466148B2, “Use of platinum wire electrode and synthetic fiber for flow assisted electro-enhanced solid phase microextraction” (KING FAHD UNIVERSITY OF PETROLEUM AND MINERALS, priority 2015, dated 2019).

Key:
[1] = not given; remark: listed apart in the source
[2] = not given; remark: listed apart in the source
[3] = not given; remark: listed apart in the source

Row | Compound | Henry's law constant at 20° C. | Diffusion coefficient in air [1] | Diffusion coefficient in water [2] | Vapor pressure at 20-25° C. [3]
1 | Brc1ccc(Oc2ccccc2)cc1 [BPPE, 4-bromophenyl phenyl ether] | 0.009 | 0.047 cm^2 s^−1 | 6.27E−06 cm^2 s^−1 | 0.0005 mmHg
2 | Clc1ccc(Oc2ccccc2)cc1 [CPPE, 4-chlorophenyl phenyl ether] | 0.012 | 0.048 cm^2 s^−1 | 6.18E−06 cm^2 s^−1 | 0.0016 mmHg
